Results from patent publication US20240252508A1, “Novel glucose uptake inhibitors for use in the treatment of cancer” (NOVELYEAST BV, priority 2021, published 2024).

Columns and labels:
tps1Δ cells = experiment: Growth rescue of tps1Δ strain on glucose (growth curves, 2% galactose medium); assay type: cell-based, S. cerevisiae; conditions: 100 μM compound, 2.5 mM glucose
Procedure, shortened: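 Growth at 30 °C was tracked by OD595 readings every 30 min, with at least triplicate technical wells. Cells came from 2% galactose synthetic precultures, were washed and set to OD 0.1, and received compound 10 min ahead of the glucose addition.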

[1] = test system: A549 lung adenocarcinoma cells; experiment: A549 cell proliferation / growth inhibition; assay type: cell-based, human; conditions: for Selected from primary screen for growth inhibition of A549 cells at 50 μM: 50 μM compound, 1 mM glucose; for Selected for having an IC50 ratio (10 mM glucose: 1 mM glucose) of A549 growth higher than WBC-A: IC50 on 10 mM vs 1 mM glucose, compared with WBC-A
Procedure, shortened: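 A549 growth screened in RPMI with 1 mM glucose, compounds at 50 μM; cell number from counts of Hoechst-stained nuclei after 3 days. Growth curves also followed by IncuCyte phase-contrast confluency over 3–5 days (1000–1500 cells/well), DMSO ≤0.1%, ≥4 technical repeats.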

With `CC1CCc2c(sc3ncnc(Sc4nnc5n4CCCCC5)c23)C1` (centres unmarked) [31A] the “Rescue of the tps1Δ strain on 2.5 mM glucose at 100 μM” value (shortened to “Rescue of the tps1Δ strain”) (tps1Δ cells) was “No” and the “Selected from primary screen for growth inhibition of A549 cells at 50 μM” value [1] was “No”.

In the case of `Cc1nc(Sc2nnnn2C2CC2)c2c(-c3cccs3)csc2n1` [44C], the “Rescue of the tps1Δ strain” value (tps1Δ cells) is reported as “No”, the “Selected from primary screen for growth inhibition of A549 cells at 50 μM” value [1] is reported as “Yes” and the “Selected for having an IC50 ratio (10 mM glucose: 1 mM glucose) of A549 growth higher than WBC-A” value (from here on “Selected for having an IC50 ratio”) [1] is reported as “Lower IC50 ratio”.

`Cc1nc(SCCOc2ccc(F)cc2)c2c(-c3cccs3)csc2n1` [32C] was tested, and the “Rescue of the tps1Δ strain” value (tps1Δ cells) was “No” and the “Selected from primary screen for growth inhibition of A549 cells at 50 μM” value [1] was “No”.

For `COc1ccc(OC)c(NC(=O)CSc2nc(C)nc3scc(-c4cccs4)c23)c1` [21B], the “Rescue of the tps1Δ strain” value (tps1Δ cells) was “No” and the “Selected from primary screen for growth inhibition of A549 cells at 50 μM” value [1] was “No”.

`Cc1nc(SCCO)c2c(-c3cccs3)csc2n1` [47A] was tested, and the “Rescue of the tps1Δ strain” value (tps1Δ cells) was “Yes”, the “Selected from primary screen for growth inhibition of A549 cells at 50 μM” value [1] was “Yes” and the “Selected for having an IC50 ratio” value [1] was “Lower IC50 ratio”.

With `Cc1ccc(-c2csc3ncnc(SCC(=O)N(C)Cc4ccco4)c23)cc1` [20B] the “Rescue of the tps1Δ strain” value (tps1Δ cells) was “No”, the “Selected from primary screen for growth inhibition of A549 cells at 50 μM” value [1] was “Yes” and the “Selected for having an IC50 ratio” value [1] was “Lower IC50 ratio”.

For `Cc1nc(Sc2nnc3ccccn23)c2c(-c3cccs3)csc2n1` [30A], the “Rescue of the tps1Δ strain” value (tps1Δ cells) was “No” and the “Selected from primary screen for growth inhibition of A549 cells at 50 μM” value [1] was “No”.

`Cc1nc(N2CCC3(CC2)OCCO3)c2c(-c3cccs3)csc2n1` [47B] was tested, and the “Rescue of the tps1Δ strain” value (tps1Δ cells) was “No”, the “Selected from primary screen for growth inhibition of A549 cells at 50 μM” value [1] was “Yes” and the “Selected for having an IC50 ratio” value [1] was “Lower IC50 ratio”.

With `Cc1nc(SCC(=O)N2CC(C)OC(C)C2)c2c(C)c(C)sc2n1` (centres unmarked) [7C] the “Rescue of the tps1Δ strain” value (tps1Δ cells) was “No”, the “Selected from primary screen for growth inhibition of A549 cells at 50 μM” value [1] was “Yes” and the “Selected for having an IC50 ratio” value [1] was “Higher IC50 ratio, but false-positive”.

With `Cc1nc(SC(C(=O)NC(N)=O)C(C)C)c2c(-c3cccs3)csc2n1` (centres unmarked) [34B] the “Rescue of the tps1Δ strain” value (tps1Δ cells) was “No” and the “Selected from primary screen for growth inhibition of A549 cells at 50 μM” value [1] was “No”.

`Cc1nc(NC2CCN(CC(N)=O)CC2)c2c(-c3cccs3)csc2n1` [48B] was tested, and the “Rescue of the tps1Δ strain” value (tps1Δ cells) was “No”, the “Selected from primary screen for growth inhibition of A549 cells at 50 μM” value [1] was “Yes” and the “Selected for having an IC50 ratio” value [1] was “Lower IC50 ratio”.

`Cc1nnc(SCC(=O)N2CCOCC2)c2c1cnn2-c1ccccc1` [70C] was tested, and the “Rescue of the tps1Δ strain” value (tps1Δ cells) was “No” and the “Selected from primary screen for growth inhibition of A549 cells at 50 μM” value [1] was “No”.

For `Cc1nc(Sc2nnc(-c3ccoc3C)n2C)c2c(-c3cccs3)csc2n1` [63C], the “Rescue of the tps1Δ strain” value (tps1Δ cells) was “No” and the “Selected from primary screen for growth inhibition of A549 cells at 50 μM” value [1] was “No”.

In the case of `COCCCNC(=O)CSc1nc(C)nc2scc(-c3cccs3)c12` [15B], the “Rescue of the tps1Δ strain” value (tps1Δ cells) is reported as “Yes” and the “Selected from primary screen for growth inhibition of A549 cells at 50 μM” value [1] is reported as “No”.

In the case of `OCCSc1ncnc2sc3c(c12)CCCC3` [27C], the “Rescue of the tps1Δ strain” value (tps1Δ cells) is reported as “No” and the “Selected from primary screen for growth inhibition of A549 cells at 50 μM” value [1] is reported as “No”.

For `COc1cccc(NC(=O)CSc2nc(C)nc3scc(-c4cccs4)c23)c1` [45B], the “Rescue of the tps1Δ strain” value (tps1Δ cells) was “No”, the “Selected from primary screen for growth inhibition of A549 cells at 50 μM” value [1] was “Yes” and the “Selected for having an IC50 ratio” value [1] was “Higher IC50 ratio, but false-positive”.

For `Cc1nc(N2CCNC(=O)C2)c2c(-c3cccs3)csc2n1` [3B], the “Rescue of the tps1Δ strain” value (tps1Δ cells) was “No” and the “Selected from primary screen for growth inhibition of A549 cells at 50 μM” value [1] was “No”.
